Laboratory results as given in patent publication US20030083228A1, “Treatments for female sexual dysfunction and methods for identifying compounds useful for treating female sexual dysfunction” (priority 2001, published 2003).

Tests used:
[1] = system: melanocortin receptors; assay: [125I]NDP-MSH competition binding assay
Source text: (§1) The first radioligand binding assay is an [^125I]AGRP competition binding assay. Compounds that attenuate binding of [^125I]AGRP or AGRP would be detected in this assay. It is noted that compounds can attenuate the binding of AGRP to melanocortin 3 and/or 4 receptors by binding to melanocortin 3 and/or 4 receptors or by binding to AGRP itself. The second radioligand binding assay is an assay using radiolabeled melanocortin ligands, for example, [^125I]norleucine D-phenylalanine melanocyte stimulating hormone ([^125I]NDP-MSH). Membranes prepared from cells expressing either melanocortin 3 or 4 receptors are used in the radioligand binding assays. The preparation and use of [^125I]AGRP and [^125I]NDP-MSH is well known in the art. See, for example, Dang et al., Molecular Endocrinology, 13, 148-155 (1999). In addition, the preparation and use of membranes from cells expressing either melanocortin 3 or 4 receptors are also well known in the art. See, Bass, et al., Molecular Pharmacology, 50, 709-715 (1996).
Specific Activity of [^125I]NDP-MSH is 2200 Ci/mmole. The final concentration of [^125I]NDP-MSH is 250 pM. Therefore, a 5 nM (20×) stock needs to be made in binding buffer. The concentration of [^125I]NDP-MSH varies from 40-60 nM. [^125I]NDP-MSH can be obtained from New England Nuclear, Boston, Mass.
(§2) The competition assay can be run using 96 well plates. […]

[2] = target: melanocortin-4 receptors (Homo sapiens, UniProt P32245); assay: [125I]AGRP competition binding assay; conditions: particularly melanocortin-4 receptors
Chain of melanocortin-4 receptors (P32245 whole entry): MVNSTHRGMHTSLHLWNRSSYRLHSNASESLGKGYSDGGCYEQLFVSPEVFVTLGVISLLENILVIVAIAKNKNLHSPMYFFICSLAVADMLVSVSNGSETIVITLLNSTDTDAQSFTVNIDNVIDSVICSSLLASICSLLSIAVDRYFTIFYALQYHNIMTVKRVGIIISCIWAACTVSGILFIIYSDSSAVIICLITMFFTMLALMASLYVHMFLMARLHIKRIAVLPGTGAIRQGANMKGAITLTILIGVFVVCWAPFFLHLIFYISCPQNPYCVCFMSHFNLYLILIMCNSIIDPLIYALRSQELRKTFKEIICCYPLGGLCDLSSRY
Source text: as §1
Specific Activity of [^125I]AGRP is 2200 Ci/mmole. The final concentration of [^125I]AGRP is 100 pM. Therefore, a 2 nM (20×) stock needs to be made in binding buffer. The concentration of [^125I]AGRP varies from 40-60 nM. [^125I]AGRP can be obtained from New England Nuclear, Boston, Mass.
as §2

[3] = system: MDA-MB-231 cells; assay: Inhibition of in vitro human breast tumor cell growth, ER-negative cell line; type: cell-based; conditions: MDA-MB-231 (ER-negative), 6 days incubation, direct cell counts
Description: The in vitro antiproliferative effects of (−)-cis-6-phenyl-5-[4-(2-pyrrolidin-1-yl-ethoxy)-phenyl]-5,6,7,8-tetrahydro-naphthalene-2-ol (PPTN) were tested using two types of human breast cancer cell lines: first, MCF-7 cells, which contain ER as well as progesterone receptors (PgR), and second, MDA-MB-231 cells, which lack ER and PgR, and enable the determination of an effect that is independent of the ER mechanism. The effect of PPTN on the growth of these different cell lines was determined by incubation of the cells with various compound concentrations for 6 days.
The antiproliferative effects were then determined by direct cell counts. PPTN inhibited the growth of the ER-positive cell line MCF-7.

| SMILES | binding of α-melanocyte stimulating hormone to melanocortin receptors [1] | binding of agouti-related protein to melanocortin receptors [2] | effect on cell proliferation [3] |
| --- | --- | --- | --- |
| O=[N+]([O-])c1ccc(N2C3c4ccccc4CCN3N(c3ccc([N+](=O)[O-])cc3)C3c4ccccc4CCN32)cc1 (stereo not drawn) [8,16-bis-(4-nitro-phenyl)-5,6,8,8a,13,14,16,16a-octahydro-[1,2,4,5]tetrazino[6,1-a;3,4-a′]diisoquinoline] | does not attenuate | attenuates | – |
| Oc1ccc2c(c1)CC[C@H](c1ccccc1)[C@@H]2c1ccc(OCCN2CCCC2)cc1 [PPTN, (−)-cis-6-phenyl-5-[4-(2-pyrrolidin-1-yl-ethoxy)-phenyl]-5,6,7,8-tetrahydro-naphthalene-2-ol] | – | – | did not inhibit cell proliferation |
